In ChEMBL document CHEMBL3507680, “University of Dundee, Gates Library screen for HepG2 cell viability”:

Assay: Human HepG2 cell viability assay in 384 well format
Type: toxicity, cell-based
Design: dose 125 nL, time 70.5 hour; cytotoxicity at 70.5 h: concentration not given beside the values
Details: HepG2 cells, read-out: Inhibition

SMILES	cytotoxicity at 70.5 h
CC(NC(=O)NC1CCN(Cc2ccncc2)CC1)c1ccccc1F (centres undefined)	-22.4%
CCc1nc(C)sc1CN1CC[C@](C)(O)[C@H](C)C1	-2.71%
CCCN1CCC2(CC1)CN(C(=O)c1cccnc1)c1ccc(F)cc12	-8.65%
CC(C)NC(=O)CCCn1cnc2ccccc2c1=O	16.8%
O=S(=O)(c1cc(F)ccc1N1CC(n2cccn2)C1)C(F)(F)F	-0.145%
O=C(C1CCCN1S(=O)(=O)C1CCCC1)N1CCSCC1 (centres undefined)	-5.09%
CC(O)CN1CCN(Cc2coc(-c3ccccc3)n2)CC1 (centres undefined)	-7.79%
Cc1cc(C(=O)N2CC[C@H](N3CCOCC3)[C@H](CCCO)C2)c(C)n1C	-16.1%
O=C(NC1CCC(N2C(=O)CCC2=O)CC1)c1c[nH]c2ccccc12 (centres undefined)	10.8%
NC(=O)c1cc(C2CCCN(CCCOc3ccc(F)cc3)C2)n[nH]1 (centres undefined)	4.69%
COCc1nc(NC(C)c2c(C)n[nH]c2C)c2cnn(C)c2n1 (centres undefined)	-5.38%
c1cc(CN2CC[C@@H]3[C@@H](CO[C@H]3CN3CCOCC3)C2)cs1	-1.87%
Cc1ccc(CN2CCn3c(CNC(=O)c4cccn4C)cnc3C2)s1	-10.3%
Cc1nc(Nc2ccc(Cl)cn2)sc1C(=O)NCCCN1CCCCC1	-3.37%
O=c1c(-c2ccnc(NC3CCCCC3)n2)cnc2sc(Cl)cn12	-5.61%
CSC(C)(C)CNC(=O)NC1CCN(CC2CC2)C1 (centres undefined)	15.5%
CN1CCOC(C(=O)N(C)c2ccc3c(c2)CCO3)C1 (centres undefined)	-18.1%
CN(Cc1csc2ccccc12)C(=O)NC1CCS(=O)(=O)C1 (centres undefined)	-7.9%
Cc1oc(C)c(C(=O)NS(=O)(=O)c2ccc3c(c2)OCCO3)c1Br	-17.9%
CN1CCN(C(=O)c2cccn2C)Cc2cccnc21	-4.65%
c1cc(-c2ccc3c(c2)C2(CCNCC2)CC3)ccn1	50.6%
N#CCCN(CCC#N)C(=O)CN1CCCC1Cc1cccc(F)c1 (centres undefined)	-5%

SMILES	cytotoxicity at 70.5 h
CCNC(=O)[C@H]1CN(Cc2ccccc2)C[C@@H]1C(=O)c1ccccc1	-12.3%
CN(C)CC(=O)N1CCN(CC(O)c2ccc(F)cc2)CC1 (centres undefined)	-1.76%
O=C(NCc1ccoc1)NC1CCCN(c2ncccn2)C1 (centres undefined)	-4.3%
Cc1csc(CNc2nc3c(s2)c(C)nn3C)n1	-4.74%
O=C(NCCC1CC1)NCc1cccc(-n2ccnc2)c1	-2.8%
CCc1oc(C(=O)N[C@@H]2c3ccccc3C[C@@H]2O)cc1C	-5.26%
COCCN1C[C@H](NC(=O)CCC(F)(F)F)[C@@H](C(C)C)C1	-2.58%
CCN1CCCCC1C(=O)N1CCc2onc(-c3ccc(Cl)cc3)c2C1 (centres undefined)	-12.9%
CN(C)C[C@H]1OC[C@@H]2CN(C(=O)NCc3cccc(F)c3)CC[C@@H]21	-5.06%
O=C(c1cc(C2CCCC2)no1)N1CCCCC1	-15.8%
COCCC(=O)N1CCC2(COCc3cnc(-c4cccnc4)nc32)C1 (centres undefined)	-6.92%
CCN1CC(C(=O)NCCn2cccc2)CC1=O (centres undefined)	-4.38%
CN1CC[C@H]2CN(C(=O)c3ccc4sc5c(c4c3)CCNC5=O)C[C@H]21	-1.19%
CO[C@@H]1CN(Cc2scnc2C)[C@@H]2CCCO[C@@H]21	-4.62%
CNC(=O)CN1CCC(NC(=O)N(C)Cc2c(C)noc2C)CC1	26.1%
CC1CN(CC2CCCC2)CCN1c1ccc2nncn2n1 (centres undefined)	4.49%
CC/N=c1\nc(NCC)nc2n1C(O)(Nc1cc(C)ccc1C)CS2 (centres undefined)	-10.1%
CN1CCCC1CCn1ccnc1-c1ccc2ccccc2n1 (centres undefined)	1.35%
CCN1CCCC(C)(C(=O)NCc2nnnn2-c2ccccc2)C1 (centres undefined)	-5.49%
CCOCC1CN(C(=O)Cc2ccccn2)Cc2cnn(CC)c21 (centres undefined)	10.8%
CN(Cc1ccccc1F)C(=O)COC(=O)c1cc(Cl)c[nH]1	10.9%
Cc1cc(C(=O)N2CCC(n3cc(CO)nn3)CC2)ccc1F	-5.39%
